Results from patent publication US20030181426A1, “Compositions and methods for treating pain using cyclooxygenase-1 inhibitors” (priority 2002, published 2003).
Read-outs that look alike come from different tables or passages of the source.

Key:
tactile allodynia = assay: PSNL tactile allodynia, local and systemic ketorolac; assay type: in vivo, rats; details: for duration of reversal of tactile allodynia: disappeared by day 5; for tactile allodynia in the ipsilateral paw: three hours after injection
Protocol: PSNL was performed as described above. […] Three rats in each group were also injected with normal saline to serve as controls. For all injections, rats were briefly anaesthetized by inhalation of 2-4% halothane/96% oxygen and air. Perineural injection was performed as previously described ([…] al. 1995). Briefly, the rat was held in lateral recumbency with the limb to be injected forming a right angle with a longitudinal axis of the trunk. The greater trochanter and ischial tuberosity were localized by palpation. On an imaginary line from the greater trochanter to the ischial tuberosity, about one third of the distance caudal to the greater trochanter, a 25-gauge injection needle was advanced from dorsolateral direction at a 45° angle until the tip encountered the ischium. A total volume of 0.2 mL was injected in a fanning motion along the path of the sciatic nerve.

noxious heat = assay: Latency to paw withdrawal from noxious heat; assay type: in vivo, male Sprague-Dawley rats
Protocol: After Animal Care and Use Committee approval, adult male Sprague-Dawley rats (240-330 g; Harlan, Indianapolis, Ind.) were anesthetized with halothane. A catheter was inserted, as previously described, through a small nick in the cisterna magnum membrane into the intrathecal space and advanced 7.5 cm such that its tip lay in the lumbar intrathecal space. […] After catheter implantation, rats were housed individually with a 12 h/12 h light/dark cycle and an unlimited supply of water and food. Experiments occurred at least 6 days after surgery.

[1] = system: tactile hypersensitivity after paw incision; assay: Brennan model: tactile hypersensitivity after paw incision, von Frey withdrawal threshold; assay type: in vivo, male Sprague-Dawley rats
[2] = not given; remark: listed apart in the source
phosphorylated CREB = assay: pCREB immunoreactive cells in dorsal horn of PSNL rats; assay type: in vivo; details: for increased number of pCREB-IR cells in the ipsilateral dorsal horn: 5 days after injection, three weeks after PSNL
Protocol: Quantitative analysis of the pCREB expression in the dorsal horn of PSNL rats receiving either saline or ketorolac intraplantar injection was conducted. […] However, no significant difference in the mean optical density in a fixed area occupied by pCREB-IR cells was detected between both sides of the dorsal horn.

COX-1 and COX-2 = details: as known in the art / Warner, 1999; cited from earlier work
[3] = Ketorolac concentration in cerebrospinal fluid (HPLC); assay type: in vivo, humans; details: for concentration at 60 min: human, other: intrathecal (lumbar puncture), lumbar CSF 60 min after injection
Protocol: Escalation to the next dose was made only after review of side effects occurring at lower doses, with pre-defined stopping criteria. CSF samples were quantitatively extracted by C-18 reverse phase cartridge chromatography and eluted with acetonitrile. Concentrated eluates were injected on to a HPLC equipped with a Phenomenex 'Prodigy' C-18 reverse phase column (250 mm×4.6 mm). Peaks were detected with an Agilent Model 1100 UV detector set at a wavelength of 313. All unknowns, standards and controls contained an equal quantity of internal standard, 200 ng of indoprofen.

chronic pain = assay: Intrathecal ketorolac in patients with chronic pain receiving spinal morphine (VAS); assay type: in vivo, humans
Excerpt: This study focused on safety, but efficacy measures were obtained by having patients rate their pain using a visual analog scale (VAS) before, and at intervals after, intrathecal injection of ketorolac. Data are available from the first 6 patients in this open label study.

acute noxious heat = assay: Heat pain testing with Peltier-controlled thermode in volunteers; assay type: in vivo, humans; details: for Pain threshold temperatures: in °C (unit assumed)
[4] = intraplantar injection, vs saline injected rats, P<0.01

O=C(c1ccccc1)c1ccc2n1CCC2C(=O)O (stereo not drawn) [ketorolac]
spinal neurotoxicity (i.t., rats): no evidence for spinal neurotoxicity | systemic toxicity at large doses (rat, in vivo): gastrointestinal ulceration and bleeding | duration of reversal of tactile allodynia (tactile allodynia; 0.2 mL 0.5% intramuscular): 3 days | tactile allodynia in the ipsilateral paw (tactile allodynia; 0.2 mL 0.5% intramuscular): reversed | duration of reversal of tactile allodynia (tactile allodynia; 0.2 mL 0.5% intraperitoneal): 3 days | tactile allodynia in the ipsilateral paw (tactile allodynia; 0.2 mL 0.5% intraperitoneal): reversed | tactile allodynia in the ipsilateral hindpaw (tactile allodynia; 0.2 mL 0.5% intraplantar, 3 weeks after PSNL, three hours to 5 days): reversed the tactile allodynia | antiallodynic effect (tactile allodynia; 0.2 mL 0.5% peri-neural, 3 weeks after PSNL): slow onset of antiallodynic effect that was observed only 3 and 5 days after injection | antinociception (latency to paw withdrawal from noxious heat) (noxious heat; addition of ketorolac to clonidine): increased antinociception | antinociception (latency to paw withdrawal from noxious heat) (noxious heat; drug alone, rats with intrathecal catheter): did not | withdrawal threshold to noxious heat (noxious heat; i.t. ketorolac, rats): lack of effect | withdrawal threshold (von Frey) after paw incision ([1]; i.t. 50 μg given on the first postoperative day, established tactile hypersensitivity, within 30 min): increased withdrawal threshold | withdrawal threshold (von Frey) after paw incision ([1]; i.t. 50 μg, pretreatment 15 min before surgery, compared to saline control 2 hr later and on the next day): increased withdrawal threshold | systemic toxicity at large doses ([2]; dog, in vivo): gastrointestinal ulceration and bleeding | spinal neurotoxicity ([2]; i.t., dogs): no evidence for spinal neurotoxicity | increased number of pCREB-IR cells in the ipsilateral dorsal horn (phosphorylated CREB; intraplantar injection): dramatically reduced | mean optical density of pCREB-IR cells, contralateral dorsal horn (phosphorylated CREB; [4]): significantly decreased | mean optical density of pCREB-IR cells, ipsilateral dorsal horn (phosphorylated CREB; [4]): significantly decreased | number of pCREB-IR cells in the contralateral dorsal horn (phosphorylated CREB; local injection, compared with saline injected PSNL rats): also decreased | increased number of pCREB-IR cells in the ipsilateral dorsal horn (phosphorylated CREB; peri-neural injection): dramatically reduced | preference in inhibition of COX-1 and COX-2 (COX-1 and COX-2): one of the most selective COX-1 antagonists | dose dependence of lumbar CSF drug concentration ([3]; 60 min after injection): apparent plateau at the 1 and 2 mg doses | concentration at 60 min ([3]; 0.5 mg, 0.50 mg i.t.): 13400 ± 1200 ng/mL | concentration at 60 min ([3]; 0.25 mg i.t.): 4600 ± 200 ng/mL | concentration at 60 min ([3]; 1.0 mg i.t.): 30700 ± 8800 ng/mL | concentration at 60 min ([3]; 2.0 mg i.t.): 33500 ± 5200 ng/mL | VAS pain (chronic pain; beginning 1 hour after injection and lasting throughout the remaining 3 hours of observation, n=6): significantly reduced | adverse events (chronic pain; i.t. 0.5 mg (5 patients) or 1.0 mg (1 patient), patients on spinal morphine): no significant adverse events | VAS pain after injection (chronic pain; n=6): 3 | VAS pain prior to injection (chronic pain; n=6): 5 | temperature pain threshold (acute noxious heat; 0.5 mg i.t.): did not affect | analgesic effect to acute noxious heat (pain magnitude report) (acute noxious heat; 0.5 mg i.t., moderate and severe pain intensities, FIG. 3): apparent effect | Pain threshold temperatures (acute noxious heat; Arm, 0.25 mg i.t., 0.25 h): 45 ± 1.0 | Pain threshold temperatures (acute noxious heat; Arm, 0.25 mg i.t., 0.5 h): 44 ± 1.5 | Pain threshold temperatures (acute noxious heat; Arm, 0.25 mg i.t., 1 h): 45 ± 1.3 | Pain threshold temperatures (acute noxious heat; Arm, 0.25 mg i.t., 2 h): 44 ± 1.7 | Pain threshold temperatures (acute noxious heat; Arm, 0.25 mg i.t., 3 h): 45 ± 1.1 | Pain threshold temperatures (acute noxious heat; Arm, 0.25 mg i.t., 4 h): 44 ± 2.2 | Pain threshold temperatures (acute noxious heat; Arm, 0.25 mg i.t., 24 h): 46 ± 0.5 | Pain threshold temperatures (acute noxious heat; Arm, 0.25 mg i.t., time 0 h (injection at time 0)): 45 ± 1.1 | Pain threshold temperatures (acute noxious heat; Arm, 0.50 mg i.t., 0.25 h): 44 ± 1.9 | Pain threshold temperatures (acute noxious heat; Arm, 0.50 mg i.t., 0.5 h): 43 ± 1.2 | Pain threshold temperatures (acute noxious heat; Arm, 0.50 mg i.t., 1 h): 44 ± 1.7 | Pain threshold temperatures (acute noxious heat; Arm, 0.50 mg i.t., 2 h): 45 ± 1.9 | Pain threshold temperatures (acute noxious heat; Arm, 0.50 mg i.t., 3 h): 46 ± 1.7 | Pain threshold temperatures (acute noxious heat; Arm, 0.50 mg i.t., 4 h): 46 ± 1.7 | Pain threshold temperatures (acute noxious heat; Arm, 0.50 mg i.t., 24 h): 44 ± 1.7 | Pain threshold temperatures (acute noxious heat; Arm, 0.50 mg i.t., time 0 h (injection at time 0)): 45 ± 1.9 | Pain threshold temperatures (acute noxious heat; Arm, 1.0 mg i.t., 0.25 h): 41 ± 1.3 | Pain threshold temperatures (acute noxious heat; Arm, 1.0 mg i.t., 0.5 h): 40 ± 0.5 | Pain threshold temperatures (acute noxious heat; Arm, 1.0 mg i.t., 1 h): 39 ± 0.7 | Pain threshold temperatures (acute noxious heat; Arm, 1.0 mg i.t., 2 h): 41 ± 1.2 | Pain threshold temperatures (acute noxious heat; Arm, 1.0 mg i.t., 3 h): 42 ± 0.9 | Pain threshold temperatures (acute noxious heat; Arm, 1.0 mg i.t., 4 h): 42 ± 1.5 | Pain threshold temperatures (acute noxious heat; Arm, 1.0 mg i.t., 24 h): 41 ± 1.6 | Pain threshold temperatures (acute noxious heat; Arm, 1.0 mg i.t., time 0 h (injection at time 0)): 40 ± 0.5 | Pain threshold temperatures (acute noxious heat; Arm, 2.0 mg i.t., 0.25 h): 44 ± 1.9 | Pain threshold temperatures (acute noxious heat; Arm, 2.0 mg i.t., 0.5 h): 43 ± 1.4 | Pain threshold temperatures (acute noxious heat; Arm, 2.0 mg i.t., 1 h): 40 ± 2.1 | Pain threshold temperatures (acute noxious heat; Arm, 2.0 mg i.t., 2 h): 43 ± 1.8 | Pain threshold temperatures (acute noxious heat; Arm, 2.0 mg i.t., 3 h): 43 ± 1.6 | Pain threshold temperatures (acute noxious heat; Arm, 2.0 mg i.t., 4 h): 43 ± 1.9 | Pain threshold temperatures (acute noxious heat; Arm, 2.0 mg i.t., 24 h): 45 ± 2.3 | Pain threshold temperatures (acute noxious heat; Arm, 2.0 mg i.t., time 0 h (injection at time 0)): 44 ± 1.3 | Pain threshold temperatures (acute noxious heat; Leg, 0.25 mg i.t., 0.25 h): 45 ± 1.1 | Pain threshold temperatures (acute noxious heat; Leg, 0.25 mg i.t., 0.5 h): 46 ± 1.1 | Pain threshold temperatures (acute noxious heat; Leg, 0.25 mg i.t., 1 h): 47 ± 0.7 | Pain threshold temperatures (acute noxious heat; Leg, 0.25 mg i.t., 2 h): 46 ± 1.5 | Pain threshold temperatures (acute noxious heat; Leg, 0.25 mg i.t., 3 h): 45 ± 1.1 | Pain threshold temperatures (acute noxious heat; Leg, 0.25 mg i.t., 4 h): 46 ± 0.9 | Pain threshold temperatures (acute noxious heat; Leg, 0.25 mg i.t., 24 h): 45 ± 1.1 | Pain threshold temperatures (acute noxious heat; Leg, 0.25 mg i.t., time 0 h (injection at time 0)): 45 ± 1.3 | Pain threshold temperatures (acute noxious heat; Leg, 0.50 mg i.t., 0.25 h): 46 ± 2.4 | Pain threshold temperatures (acute noxious heat; Leg, 0.50 mg i.t., 0.5 h): 48 ± 2.2 | Pain threshold temperatures (acute noxious heat; Leg, 0.50 mg i.t., 1 h): 46 ± 1.7 | Pain threshold temperatures (acute noxious heat; Leg, 0.50 mg i.t., 2 h): 46 ± 2.5 | Pain threshold temperatures (acute noxious heat; Leg, 0.50 mg i.t., 3 h): 46 ± 1.7 | Pain threshold temperatures (acute noxious heat; Leg, 0.50 mg i.t., 4 h): 46 ± 2.4 | Pain threshold temperatures (acute noxious heat; Leg, 0.50 mg i.t., 24 h): 45 ± 2.0 | Pain threshold temperatures (acute noxious heat; Leg, 0.50 mg i.t., time 0 h (injection at time 0)): 45 ± 1.4 | Pain threshold temperatures (acute noxious heat; Leg, 1.0 mg i.t., 0.25 h): 42 ± 1.7 | Pain threshold temperatures (acute noxious heat; Leg, 1.0 mg i.t., 0.5 h): 42 ± 0.5 | Pain threshold temperatures (acute noxious heat; Leg, 1.0 mg i.t., 1 h): 44 ± 0.5 | Pain threshold temperatures (acute noxious heat; Leg, 1.0 mg i.t., 2 h): 42 ± 1.5 | Pain threshold temperatures (acute noxious heat; Leg, 1.0 mg i.t., 3 h): 43 ± 1.0 | Pain threshold temperatures (acute noxious heat; Leg, 1.0 mg i.t., 4 h): 43 ± 1.1 | Pain threshold temperatures (acute noxious heat; Leg, 1.0 mg i.t., 24 h): 42 ± 0.9 | Pain threshold temperatures (acute noxious heat; Leg, 1.0 mg i.t., time 0 h (injection at time 0)): 41 ± 1.3 | Pain threshold temperatures (acute noxious heat; Leg, 2.0 mg i.t., 0.25 h): 45 ± 1.4 | Pain threshold temperatures (acute noxious heat; Leg, 2.0 mg i.t., 0.5 h): 43 ± 1.3 | Pain threshold temperatures (acute noxious heat; Leg, 2.0 mg i.t., 1 h): 44 ± 2.1 | Pain threshold temperatures (acute noxious heat; Leg, 2.0 mg i.t., 2 h): 44 ± 2.3 | Pain threshold temperatures (acute noxious heat; Leg, 2.0 mg i.t., 3 h): 43 ± 1.6 | Pain threshold temperatures (acute noxious heat; Leg, 2.0 mg i.t., 4 h): 44 ± 1.8 | Pain threshold temperatures (acute noxious heat; Leg, 2.0 mg i.t., 24 h): 45 ± 2.2 | Pain threshold temperatures (acute noxious heat; Leg, 2.0 mg i.t., time 0 h (injection at time 0)): 45 ± 1.6 | response to suprathreshold stimuli (acute noxious heat; any dose (0.25-2 mg i.t.)): no effect | threshold to heat pain in either the arm or the leg (acute noxious heat; i.t. 0.25-2 mg): unaffected | analgesia to acute noxious heat (acute noxious heat; i.t., doses up to 1.0 mg): several hours of analgesia
